Measured values from PubChem BioAssay AID330 (DTP/NCI, 2004).
“And” between values parts separate entries of the source, which are not always exact repeats. Identical values can stand only once. Inconclusive results and toxic doses are left out. Rule for the calls: active = survival T/C of 150% or more; inactive = T/C below 125% in these data.

Tested on: P388 leukemia ip, CD2F1 mice, survival T/C
Assay: NCI In Vivo Anticancer Drug Screen. Data for tumor model P388 Leukemia (intraperitoneal) in CD2F1 (CDF1) mice
Conditions: endpoint: median survival time, higher = longer survival
Summary of the method: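 Mice carrying the transplanted tumor received test compound or vehicle. Survival was recorded in each group, and the value is the treated-group measurement divided by that of the vehicle-treated control group.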

[1] = dose: 50.0 mg/kg/injection, schedule: Q01DX005 (ip), vehicle: Klucel (hydroxypropylcellulose) (HPC)
[2] = dose: 100.0 mg/kg/injection, schedule: Q01DX005 (ip), vehicle: Klucel (hydroxypropylcellulose) (HPC)
[3] = dose: 200.0 mg/kg/injection, schedule: Q01DX005 (ip), vehicle: Klucel (hydroxypropylcellulose) (HPC)
[4] = dose: 50.0 mg/kg/injection, schedule: Q01DX009 (ip), vehicle: saline with Tween-80
[5] = dose: 100.0 mg/kg/injection, schedule: Q01DX009 (ip), vehicle: saline with Tween-80
[6] = dose: 200.0 mg/kg/injection, schedule: Q01DX009 (ip), vehicle: saline with Tween-80
[7] = dose: 400.0 mg/kg/injection, schedule: Q01DX009 (ip), vehicle: saline with Tween-80
[8] = dose: 100.0 mg/kg/injection, schedule: Q04DX003 (ip), vehicle: Klucel (hydroxypropylcellulose) (HPC)
[9] = dose: 7.5 mg/kg/injection, schedule: Q01DX005 (ip), vehicle: Klucel (hydroxypropylcellulose) (HPC)

Measured: T/C

CC(C)COC(=O)C1(N)CCCC1
inactive: dose: 100.0 mg/kg/injection, schedule: Q04DX003 (ip), vehicle: saline 95 % of control | dose: 200.0 mg/kg/injection, schedule: Q04DX003 (ip), vehicle: saline 104 % of control | dose: 400.0 mg/kg/injection, schedule: Q04DX003 (ip), vehicle: saline 100 % of control

O=c1[nH]cnc2ccc3cn[nH]c3c12
inactive: dose: 50.0 mg/kg/injection, schedule: Q01DX005 (ip), vehicle: saline with Tween-80 100 % of control | dose: 100.0 mg/kg/injection, schedule: Q01DX005 (ip), vehicle: saline with Tween-80 105 % of control | dose: 200.0 mg/kg/injection, schedule: Q01DX005 (ip), vehicle: saline with Tween-80 106 % of control

Cc1ccc(S(=O)(=O)/N=C2\CCN(S(=O)(=O)c3ccccc3)N2S(=O)(=O)c2ccc(C)cc2)cc1
inactive: [1] 99 % of control | [2] 90 % of control | [3] 94 % of control

COc1ccc(N=N/N=c2\sc3cc(OC)ccc3n2C)cc1
inactive: dose: 7.5 mg/kg/injection, schedule: Q01DX005 (ip), vehicle: saline with Tween-80 113 % of control | dose: 15.0 mg/kg/injection, schedule: Q01DX005 (ip), vehicle: saline with Tween-80 104 % of control | dose: 30.0 mg/kg/injection, schedule: Q01DX005 (ip), vehicle: saline with Tween-80 112 % of control and 117 % of control | dose: 60.0 mg/kg/injection, schedule: Q01DX005 (ip), vehicle: saline with Tween-80 104 % of control

O=c1ccn2c(n1)SC(c1ccccc1)C2 (stereo not drawn)
inactive: [4] 100 % of control | [5] 98 % of control | [6] 100 % of control

Cc1cc(Br)c2ccccc2c1NS(=O)(=O)c1ccccc1
inactive: [5] 100 % of control | [6] 100 % of control | [7] 90 % of control

O=C(Nc1ccccc1)OC(CN1CCCCC1)C(CN1CCCCC1)OC(=O)Nc1ccccc1 (stereo not drawn)
inactive: dose: 12.5 mg/kg/injection, schedule: Q01DX005 (ip), vehicle: Klucel (hydroxypropylcellulose) (HPC) 99 % of control | dose: 25.0 mg/kg/injection, schedule: Q01DX005 (ip), vehicle: Klucel (hydroxypropylcellulose) (HPC) 91 % of control | [3] 87 % of control

c1cc2cc(c1)CSCc1cccc(c1)CSCc1cccc(c1)CSC2
inactive: dose: 50.0 mg/kg/injection, schedule: Q04DX002 (ip), vehicle: saline 96 % of control | dose: 100.0 mg/kg/injection, schedule: Q04DX002 (ip), vehicle: saline 93 % of control | dose: 200.0 mg/kg/injection, schedule: Q04DX002 (ip), vehicle: saline 93 % of control

c1ccc2c(c1)Nc1ccncc1S2
inactive: [5] 100 % of control | dose: 100.0 mg/kg/injection, schedule: Q04DX003 (ip), vehicle: saline with Tween-80 100 % of control | [6] 100 % of control | dose: 200.0 mg/kg/injection, schedule: Q04DX003 (ip), vehicle: saline with Tween-80 100 % of control | [7] 100 % of control

CC(C)(C)SC(=O)CC(O)(c1ccccc1)c1ccccc1
inactive: [8] 115 % of control | dose: 200.0 mg/kg/injection, schedule: Q04DX003 (ip), vehicle: Klucel (hydroxypropylcellulose) (HPC) 106 % of control | dose: 400.0 mg/kg/injection, schedule: Q04DX003 (ip), vehicle: Klucel (hydroxypropylcellulose) (HPC) 95 % of control

CCCCCCCCCCCCCCCC(=O)OCC(COP(=O)(O)OC1CCC2(C)C(=CCC3C2CCC2(C)C(C(C)CCCC(C)C)CCC32)C1)OC(=O)CCCCCCCCCCCCCCC (stereo not drawn)
inactive: dose: 100.0 mg/kg/injection, schedule: Q01DX001 (ip), vehicle: Klucel (hydroxypropylcellulose) (HPC) 97 % of control | dose: 200.0 mg/kg/injection, schedule: Q01DX001 (ip), vehicle: Klucel (hydroxypropylcellulose) (HPC) 99 % of control | dose: 400.0 mg/kg/injection, schedule: Q01DX001 (ip), vehicle: Klucel (hydroxypropylcellulose) (HPC) 96 % of control

O=C(CO)N(O)c1ccc(Cl)cc1
inactive: dose: 50.0 mg/kg/injection, schedule: Q01DX009 (ip), vehicle: water 109 % of control | dose: 100.0 mg/kg/injection, schedule: Q01DX009 (ip), vehicle: water 101 % of control

CC1=C(C2CO2)C(=O)C(C)=C(C2CO2)C1=O (stereo not drawn)
inactive: dose: 1.56 mg/kg/injection, schedule: Q04DX002 (ip), vehicle: Klucel (hydroxypropylcellulose) (HPC) 95 % of control | dose: 3.12 mg/kg/injection, schedule: Q04DX002 (ip), vehicle: Klucel (hydroxypropylcellulose) (HPC) 93 % of control | dose: 6.25 mg/kg/injection, schedule: Q04DX002 (ip), vehicle: Klucel (hydroxypropylcellulose) (HPC) 88 % of control | dose: 12.5 mg/kg/injection, schedule: Q04DX002 (ip), vehicle: Klucel (hydroxypropylcellulose) (HPC) 89 % of control

C#CC1=CC(=O)C(OC)=CC1=O
inactive: [9] 99 % of control | dose: 15.0 mg/kg/injection, schedule: Q01DX005 (ip), vehicle: Klucel (hydroxypropylcellulose) (HPC) 100 % of control

CCCCSP(Oc1ccccc1)SCCCC
inactive: dose: 25.0 mg/kg/injection, schedule: Q04DX003 (ip), vehicle: Klucel (hydroxypropylcellulose) (HPC) 100 % of control | dose: 50.0 mg/kg/injection, schedule: Q04DX003 (ip), vehicle: Klucel (hydroxypropylcellulose) (HPC) 108 % of control | [8] 109 % of control

CC(CC(=O)O)C(C(=O)O)C(=O)O (stereo not drawn)
inactive: dose: 50.0 mg/kg/injection, schedule: Q01DX005 (ip), vehicle: saline 104 % of control | dose: 100.0 mg/kg/injection, schedule: Q01DX005 (ip), vehicle: saline 101 % of control

O=[N+]([O-])c1ccc(/C=C/Br)o1
inactive: dose: 50.0 mg/kg/injection, schedule: Q01DX009 (ip), vehicle: suspension in saline 88 % of control | dose: 100.0 mg/kg/injection, schedule: Q01DX009 (ip), vehicle: suspension in saline 95 % of control | dose: 200.0 mg/kg/injection, schedule: Q01DX009 (ip), vehicle: suspension in saline 103 % of control

NC(=O)/C(N=Nc1ccccc1C(=O)O)=N\Nc1ccccc1C(=O)O
inactive: [1] 94 % of control | [2] 95 % of control | [3] 103 % of control

CC1(C)NC(=S)N(c2ccccc2C(=O)O)C2=C1CN(Cc1ccccc1)CC2
inactive: dose: 50.0 mg/kg/injection, schedule: Q01DX009 (ip), vehicle: saline 100 % of control | dose: 100.0 mg/kg/injection, schedule: Q01DX009 (ip), vehicle: saline 95 % of control | dose: 200.0 mg/kg/injection, schedule: Q01DX009 (ip), vehicle: saline 105 % of control

COC(=O)[C@@]12OC[C@]34[C@H]([C@@H](O)[C@@H]1O)[C@@]1(C)CC(=O)C(OC(=O)CC(=O)OC5=C(C)[C@@H]6C[C@H]7OC(=O)[C@H](OC(=O)C=C(C)C)[C@H]8[C@]9(C(=O)OC)OC[C@]78[C@H]([C@@H](O)[C@@H]9O)[C@@]6(C)CC5=O)=C(C)[C@@H]1C[C@H]3OC(=O)[C@H](OC(=O)C=C(C)C)[C@@H]24
inactive: dose: 0.3 mg/kg/injection, schedule: Q01DX009 (ip), vehicle: saline with Tween-80 106 % of control | dose: 0.6 mg/kg/injection, schedule: Q01DX009 (ip), vehicle: saline with Tween-80 107 % of control | dose: 0.9 mg/kg/injection, schedule: Q01DX009 (ip), vehicle: saline with Tween-80 113 % of control

NC(=S)N/N=C\C(=O)c1cccc([N+](=O)[O-])c1
inactive: [4] 94 % of control | [5] 105 % of control | [6] 96 % of control

C/C(=N/NC(=O)O[C@@H]1C[C@H](C)CC[C@H]1C(C)C)c1cc[c]([Sn]([CH3])([Cl])[c]2ccccc2)cc1 (stereo partly drawn)
inactive: dose: 0.93 mg/kg/injection, schedule: Q01DX005 (ip), vehicle: Klucel (hydroxypropylcellulose) (HPC) 108 % of control | dose: 1.87 mg/kg/injection, schedule: Q01DX005 (ip), vehicle: Klucel (hydroxypropylcellulose) (HPC) 100 % of control | dose: 3.75 mg/kg/injection, schedule: Q01DX005 (ip), vehicle: Klucel (hydroxypropylcellulose) (HPC) 100 % of control and 109 % of control | [9] 107 % of control
